Test results as given in PMC9861744, “Polysulfone Membranes Doped with Human Neutrophil Elastase Inhibitors: Assessment of Bioactivity and Biocompatibility” (Membranes, 2023).

Target: T1, Human neutrophil elastase (HNE) (Homo sapiens, UniProt P08246)
T1 construct: gene ELANE
T1 sequence (P08246 30-247): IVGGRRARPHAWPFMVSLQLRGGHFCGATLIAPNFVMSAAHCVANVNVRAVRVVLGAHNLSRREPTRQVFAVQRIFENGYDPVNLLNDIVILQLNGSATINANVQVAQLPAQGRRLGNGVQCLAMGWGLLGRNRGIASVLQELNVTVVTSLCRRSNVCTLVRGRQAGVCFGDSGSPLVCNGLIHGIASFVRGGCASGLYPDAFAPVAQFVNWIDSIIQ
Assay: fluorometric HNE activity assay with MeO-Suc-Ala-Ala-Pro-Val-AMC, […] min preincubation, […] °C
Format: biochemical

SMILES: CCC1(CC)C(=O)N(c2ccc(C(=O)O)cc2)C1=O [D4L-2]
- IC50: 18 nM
